According to patent publication US20030040531A1, “Remedies for reperfusion injury containing integrin alphanubeta 3 antagonist” (priority 2000, published 2003):

Tests used:
[1] = system: rat vascular smooth muscle cells; test: adhesion of rat vascular smooth muscle cells to rat vitronectin; type: cell-based; conditions: read-out: concentration (IC50) necessary for inhibition of adhesion to vitronectin
Description: The adhesion of vascular smooth muscle cells to immobilized human vitronectin was measured in accordance with the method of Liaw et al. (L. Liaw et al., Circ. Res., 74, 214 (1994)). A Dulbecco's phosphate buffer (Dulbecco's PBS(−)) solution of human serum-derived vitronectin adjusted to a concentration of 4 μg/ml was first added to wells (50 μl/well) of a microplate (Maxisorp), and a reaction for immobilization was allowed to proceed at 4° C. overnight. After washing twice with 150 μl of Dulbecco's PBS (−), Dulbecco's PBS (−) containing 10 mg/ml of bovine serum albumin was added, followed by blocking at 37° C. for one hr. The microplate was then washed twice with 150 μl of Dulbecco's PBS (−) to prepare an assay plate.
Next, 50 μl of a Dulbecco's modified Eagle's basal medium containing 20 mg/ml of bovine serum albumin with a medicament added thereto was added to the wells of the human vitronectin-coated assay microplate, followed by pre-cultivation under 5% carbon dioxide at 37° C. for 10 min. Thereafter, 50 μl of the Dulbecco's modified Eagle's basal medium with human vascular smooth muscle cells suspended therein was added thereto, and the plate was thoroughly stirred. A reaction was allowed to proceed under 5% carbon dioxide at 37° C. for 90 min. The reaction solution containing non-adherent cells was then removed, followed by washing three times with Dulbecco's PBS (−). For the adhered cells, 100 μl of Dulbecco's PBS (−) containing 4% paraformaldehyde was added, and immobilization was allowed to proceed at room temperature for 10 min. Next, 100 μl of a Dulbecco's PBS (−) containing 0.5% Toluidine Blue and 4% paraformaldehyde was added, and staining was allowed to proceed at room temperature for 5 min, followed by thorough washing with distilled water. The inside of the wells was then air-dried, and 1% aqueous sodium dodecylsulfate solution was then added to perform cytolysis. The absorbance of the microplate thus obtained was measured at 595 nm. […] The inhibition was calculated by the following equation. IC50 was determined from a primary regression line of the logarithm of each concentration of the test compound and the logarithm of (100−inhibition)/inhibition. [formula]
Rat vascular smooth muscle cells were cultivated in a medium composed of a mixture of equal amounts of 15% fetal calf serum-containing 199 medium and RPMI 1640 medium. Separately, hamster and dog vascular smooth muscle cells were cultivated in a 10% fetal calf serum-containing Dulbecco's modified Eagle's basal medium. These cultivated cells were then suspended in a Dulbecco's modified Eagle's basal medium to concentrations of 3×10^5 cells/ml (rat), 3×10^5 cells/ml (hamster), and 4×10^5 cells /ml (dog), respectively. Rat vitronectin was used in the adhesion system of rats and hamsters, while bovine vitronectin was used in the adhesion system of dogs.

platelet aggregation [2] = test: inhibition of platelet aggregation, human; type: cell-based; conditions: read-out: concentration (IC50) necessary for inhibition of platelet aggregation
platelet aggregation [3] = test: inhibition of platelet aggregation, rat; type: cell-based; conditions: read-out: concentration (IC50) necessary for inhibition of platelet aggregation
[4] = system: rat acute myocardial ischemia-reperfusion model; test: rat acute myocardial ischemia-reperfusion model; type: in vivo; conditions: for myocardial infarct size (proportion of the infarct area in the left ventricle): average value±SE, n=5
Description: Male Wistar rats (330 to 420 g) were subjected to controlled respiration using an artificial respirator under pentobarbital anesthesia (60 mg/kg, i.p.), and the blood pressure and the heart rate were measured through a blood pressure amplifier and a heart rate unit. Further, for the ischemia of the myocardium, an increase in voltage of R-wave in the II leading in an electrocardiogram was confirmed with a monitor through a bioelectricity amplifier. The rats underwent thoracotomy, and the coronary artery, together with the myocardium, was then occluded using a suture with a needle. Ischemia for 3 min and reperfusion for 5 min were followed by ischemia for 45 min and reperfusion for 45 min. Medicaments tested and concentrations thereof were 3 mg/kg+3 mg/kg/hr (bolus +infusion) (L; low dose group) and 6 mg/kg+3 mg/kg/hr (bolus +infusion) (H; high dose group) for the compound represented by formula (V); 3 mg/kg+3 mg/kg/hr (bolus +infusion) for the compound represented by formula (VI); 3 mg/kg+3 mg/kg/hr (bolus +infusion) (L; low dose group) and 6 mg/kg+3 mg/kg/hr (bolus +infusion) (H; high dose group) for the compound represented by formula (IV); 5 mg/kg+5 mg/kg/hr(bolus +infusion)(L; low dose group) and 10 mg/kg+10 mg/kg/hr (bolus +infusion) (H; high dose group) for the compound represented by formula (VII); and 1 mg/kg+1 mg/kg/hr (bolus+infusion) (L; low dose group) and 6 mg/kg+6 mg/kg/hr (bolus+infusion) (H; high dose group) for the compound represented by formula (VIII). For a control group (group C), a 10% (v/v) dimethyl sulfoxide/5% glucose solution was administered, and each medicament was dissolved in the same solvent. The dose volume was 3 ml/kg+3 ml/kg/h (bolus+infusion). The medicament was continuously administered through an infusion pump for the period starting with one min before the ischemia and ending with the completion of the experiment. After reperfusion for 45 min, the rats were slaughtered by excessive administration of pentobarbital, and the heart was removed. After perfusion with a Ringer solution, perfusion staining was carried out with 1.5% triphenyltetrazolium chloride, and the proportion of the infarct area in the left ventricle was quantitatively determined. For animals used in the experiment, each group consisted of 5 rats.

platelet aggregation [5] = test: inhibition of platelet aggregation, hamster; type: cell-based; conditions: Mesocricetus auratus, read-out: concentration (IC50) necessary for inhibition of platelet aggregation
Description: The platelets aggregation was measured by the Born's method (G. V. R. Born, Nature 194, 927 (1962)). Blood was collected through an injector containing a 3.8% sodium citrate solution from the aorta abdominalis (final concentration: 0.38%). Centrifugation was carried out at 900 rpm (about 80× g) for 10 min to collect platelet-rich plasma, and centrifugation was further carried out at 3,000 rpm (about 880× g) for 10 min to collect platelet-poor plasma, followed by the measurement of aggregation with an aggregometer. In this case, ADP (final concentration: 5 μM) was used as an aggregation inducer.

[6] = 3 mg/kg+3 mg/kg/hr (bolus+infusion)
[7] = 6 mg/kg+3 mg/kg/hr (bolus+infusion), group H

Question: Which IC50 [1] does the source give for `O=C(NCC(NS(=O)(=O)c1ccccc1)C(=O)O)c1ccc(N2CCC(NC3=NCCCN3)CC2)c(F)c1` (stereo in doubt) [formula (IV), (2S)-Benzenesulfonylamino-3-[3-fluoro-4-{4-(1,4,5,6-tetrahydropyrimidin-2-ylamino)-piperidin-1-yl}benzoylamino]propionic Acid] here?
Answer: 230 nM

Question: And the IC50 (platelet aggregation [2])?
Answer: 55 nM

Question: What about the IC50 (platelet aggregation [3]) of the same compound?
Answer: > 100000 nM

Question: What about the “reduction of myocardial infarct size as compared with group C” value [4, 6] of the same compound?
Answer: 17.8%

Question: What about the “myocardial infarct size (proportion of the infarct area in the left ventricle)” value [4, 6] of the same compound?
Answer: 32.3±4.9%

Question: What about the “reduction of myocardial infarct size as compared with group C” value [4, 7] of the same compound?
Answer: 35.1%

Question: And the “myocardial infarct size (proportion of the infarct area in the left ventricle)” value [4, 7]?
Answer: 25.5±1.5%

Question: What about the “influence on the blood pressure and the heart rate” value ([4]; doses at which the infarct inhibition action could be obtained) of the same compound?
Answer: no influence

Question: What about the IC50 (platelet aggregation [5]) of the same compound?
Answer: 1900 nM
